Results as given in patent US10328161B2, “Luciferin derivatives from bicyclic reactants and aminothiol derivatives and methods of use thereof” (The Regents of the University of California, priority 2012, dated 2019).

Experiments:
Assay type in all cases: in vivo
[1] = Antioxidant (NAC) experiments in mice; settings: NAC 10 mg/kg IP, H2O2 1.5 μmol, PCL-2 and D-cysteine 0.05 μmol each
Text: A Xenogen IVIS Spectrum instrument (Caliper Life Sciences, Hopkinton, Mass.) was used for bioluminescent imaging in all animal experiments. Mice were anesthetized prior to injection and during imaging via inhalation of isoflurane. Phosphate Buffered Saline (PBS) was purchased from Thermo Fisher Scientific (Waltham, Mass.), and saline (0.9%) was made from sodium chloride and Millipore water. Isoflurane was purchased from Phoenix Pharmaceuticals, Inc. (St. Joseph, Mo.), and pharmaceutical grade DMSO was purchased from Sigma-Aldrich (St. Louis, Mo.). Medical grade oxygen was purchased from Praxair (Danbury, Conn.). FVB-luc^+ (FVB-Tg(CAG-luc,-GFP)L2G85Chco/J) mice were bred at UC Berkeley, and were single or group-housed on a 12:12 light-dark cycle at 22° C. with free access to food and water. All studies were approved and performed according to the guidelines of the Animal Care and Use Committee of the University of California, Berkeley. Unshaven, male FVB-luc^+ mice, were anesthetized with isoflurane and injected IP with NAC (10 mg/kg in 25 μL of PBS, pH 7-8) or PBS (25 μL). After 2 min, the mice were injected IP with a mixture of PCL-2 and D-cysteine (0.05 μmol each, in 50 μL of 1:1 DMSO:PBS) immediately prior to IP injection of H2O2 (1.5 μmol in 75 μL of PBS). […]

caspase 8 = target: T1, caspase 8 (Mus musculus, UniProt O89110); experiment: Lipopolysaccharide inflammation model, caspase 8 detection with IETDC; settings: pan-caspase inhibitor 1 μmol IP, LPS-treated mice
T1 construct: from tissue; host or cells: living FVB-luc+ mice (whole animal, IP injection) after LPS challenge
T1 sequence (O89110 219-376 limits assumed): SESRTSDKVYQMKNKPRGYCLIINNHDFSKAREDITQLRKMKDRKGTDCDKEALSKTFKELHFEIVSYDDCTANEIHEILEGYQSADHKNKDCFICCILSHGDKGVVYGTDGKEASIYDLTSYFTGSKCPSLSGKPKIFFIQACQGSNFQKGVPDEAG
T1 sequence (O89110 388-480 limits assumed): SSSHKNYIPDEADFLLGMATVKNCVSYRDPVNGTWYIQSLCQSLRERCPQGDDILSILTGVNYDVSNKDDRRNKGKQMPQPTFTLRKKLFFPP
Text: (§1) A Xenogen IVIS Spectrum instrument (Caliper Life Sciences, Hopkinton, Mass.) was used for bioluminescent imaging in all animal experiments. Mice were anesthetized prior to injection and during imaging via inhalation of isoflurane. Phosphate Buffered Saline (PBS) was purchased from Thermo Fisher Scientific (Waltham, Mass.), and saline (0.9%) was made from sodium chloride and Millipore water. Isoflurane was purchased from Phoenix Pharmaceuticals, Inc. (St. Joseph, Mo.), and pharmaceutical grade DMSO was purchased from Sigma-Aldrich (St. Louis, Mo.). Medical grade oxygen was purchased from Praxair (Danbury, Conn.).
(§2) FVB-luc^+ (FVB-Tg(CAG-luc,-GFP)L2G85Chco/J) mice were bred at UC Berkeley, and were single or group-housed on a 12:12 light-dark cycle at 22° C. with free access to food and water. All studies were approved and performed according to the guidelines of the Animal Care and Use Committee of the University of California, Berkeley.
Unshaven, female FVB-luc^+ mice, aged 2-5 months, were anesthetized with isoflurane and injected IP with lipopolysaccharides (LPS, 3 mg/kg in 50 μL of saline) or saline (50 μL). For studies with PCL-2 alone, mice were injected IP with either apocynin (10 mg/kg in 20 μL of DMSO) or DMSO (20 μL) 6 h after LPS injection. […]

H2O2 and caspase 8 = experiment: Lipopolysaccharide inflammation model, dual detection with PCL-2 and IETDC; settings: ascorbic acid 200 mg/kg and z-VD-OPh 1 μmol used together, LPS-treated mice
Text: as §1, §2
For studies with PCL-2 and IETDC, mice were injected IP with ascorbic acid (200 mg/kg in 30 μL of saline) or the saline vehicle (30 μL) 30 min prior to IP injection of LPS (3 mg/kg in 50 μL of saline) or saline (50 μL). Two hours after injection of LPS, z-VD(OMe)-OPh (1 μmol in 20 μL of DMSO) or the vehicle, DMSO (20 μL), was injected IP. […]

FVB-luc^+ mice = experiment: Control: effect of inhibitors and antioxidants on HCBT and D-cysteine luciferin signal in mice; settings: apocynin 10 mg/kg or z-VD-OPh 1 μmol IP; HCBT and D-cysteine 0.01 μmol each
Protocol: (a) Total photon fluxes, 0-15 min post-injection, for mice (n=3) injected with apocynin (IP, 10 mg/kg in 20 μL DMSO) or vehicle (IP, 20 μL DMSO) two min prior to injections of a mixture of HCBT and D-cysteine (IP, 0.01 μmol each, in 50 μL of 1:1 DMSO:PBS). (b) Total photon fluxes, 15-45 min post-injection, for mice (n=3) injected with z-VD(OMe)-OPh (IP, 1 μmol in 20 μL DMSO) or vehicle (IP, 20 μL DMSO) 30 min prior to injections of a mixture of HCBT and D-cysteine (IP, 0.01 μmol each, in 50 μL of 1:1 DMSO:PBS). Error bars are ±SEM.
FIG. 18 depicts bioluminescent signals from HCBT and D-cysteine with ascorbic acid in FVB-luc^+ mice. Total photon fluxes, 30-60 min post-injection, for mice (n=3-4) injected with ascorbic acid (IP, 200 mg/kg in 30 μL saline) or vehicle (IP, 30 μL saline) 4.5 h prior to injections of a mixture of HCBT and D-cysteine (IP, 0.01 μmol each, in 50 μL of 1:1 DMSO:PBS). Error bars are ±SEM.

Row | SMILES | effect of NAC on the PCL-2 bioluminescent signal [1] | attenuation of the IETDC signal (caspase 8) | decrease in dual-probe bioluminescent signal (H2O2 and caspase 8) | effect on the luciferin signal from HCBT and D-cysteine in vivo (FVB-luc^+ mice)
1 | CC(=O)N[C@@H](CS)C(=O)O [NAC, N-acetyl-L-cysteine] | considerably attenuated |  |  | 
2 | COC(=O)CC(NC(=O)C(NC(=O)OCc1ccccc1)C(C)C)C(=O)COc1c(F)cccc1F (stereo not shown) [z-VD-OPh] |  | 34% | 30% | do not alter the luciferin signal
